Reference: US20250236589A1, “THERAPEUTIC PHENETHYLAMINE COMPOSITIONS AND METHODS OF USE” (Cybin IRL Limited, priority 2022, published 2025)

Legend:
κ-opioid (h) = κ-opioid (h) (Homo sapiens (Human), UniProt P41145); experiment: Off-target screen, radioligand displacement at 10 μM; conditions: read-out: binding at 10 μM
[1] = target: PAC1 (Pituitary adenylate cyclase-activating polypeptide, PACAP) (h) (Homo sapiens (Human), UniProt P41586); experiment: as above; conditions: read-out: binding at 10 μM
PPARγ (h) = PPARγ (h) (Homo sapiens (Human), UniProt P37231); experiment: as above; conditions: read-out: binding at 10 μM
Adrenergic β1 (h) = Adrenergic β1 (h) (Homo sapiens (Human), UniProt P08588); experiment: as above; conditions: read-out: binding at 10 μM
D2S (h) = D2S (h) (Homo sapiens (Human), UniProt P14416); experiment: as above; conditions: read-out: binding at 10 μM
5-HT1A (h) = 5-HT1A (h) (Homo sapiens (Human), UniProt P08908); experiment: as above; type: binding; conditions: agonist radioligand
5-HT2A receptor = 5-HT2A receptor (Homo sapiens (Human), UniProt P28223); experiment: 5-HT2A functional assay, IP1 (IPOne); type: cell-based
Description: After incubation, cells were lysed and fluorescence acceptor and donor were added. FRET was measured after 60 min at room temperature using a microplate reader (Envision, Perkin Elmer). TRUPATH assays followed a similar workflow, except that different reagents were used, and LiCl was not included in the samples; the protocol was based on the report by Olsen, R. H. J. et al., cited above.

5-HT transporter (h) = 5-HT transporter (h) (Homo sapiens (Human), UniProt P31645); experiment: Off-target screen, radioligand displacement at 10 μM; type: binding; conditions: read-out: binding at 10 μM
TNF-α (h) = experiment: as above; type: binding, human
[2] = target: BZD (peripheral) (rat heart) (Rattus norvegicus (Rat), UniProt P16257); experiment: as above; conditions: read-out: binding at 10 μM
[3] = system: Potassium KV channel (rat cortex); experiment: as above; type: binding
Dopamine D3 (h) = Dopamine D3 (h) (Homo sapiens (Human), UniProt P35462); experiment: as above; type: binding; conditions: antagonist radioligand; read-out: inhibition at 10 μM
Muscarinic M2 (h) = Muscarinic M2 (h) (Homo sapiens (Human), UniProt P08172); experiment: as above; conditions: read-out: binding at 10 μM
Endothelin ETB (h) = Endothelin ETB (h) (Homo sapiens (Human), UniProt P24530); experiment: as above; conditions: read-out: binding at 10 μM
[4] = system: Calcium SKCa channel (rat cortex); experiment: as above; type: binding
Angiotensin AT1 (h) = Angiotensin AT1 (h) (Homo sapiens (Human), UniProt P30556); experiment: as above; conditions: read-out: binding at 10 μM
5-HT2C receptor = 5-HT2C receptor (Homo sapiens (Human), UniProt P28335); experiment: 5-HT2C agonist radioligand binding ([125I]DOI)
Text: 5-HT2 Receptor Activity. […] Drug Test Anal 2012, 4 (7-8), 556-76. Ray, T. S., Psychedelics and the human receptorome. PLoS One 2010, 5 (2), e9019].

μ-opioid (h) = μ-opioid (h) (Homo sapiens (Human), UniProt P35372); experiment: Off-target screen, radioligand displacement at 10 μM; type: binding; conditions: read-out: binding at 10 μM
Tachykinin NK3 (h) = Tachykinin NK3 (h) (Homo sapiens (Human), UniProt P29371); experiment: as above; conditions: read-out: binding at 10 μM
Galanin GAL2 (h) = Galanin GAL2 (h) (Homo sapiens (Human), UniProt O43603); experiment: as above; conditions: read-out: binding at 10 μM
Melanocortin MC4 (h) = Melanocortin MC4 (h) (Homo sapiens (Human), UniProt P32245); experiment: as above; conditions: read-out: binding at 10 μM
[5] = target: Cholecystokinin CCK2 (CCKB) (h) (Homo sapiens (Human), UniProt P32239); experiment: as above; conditions: read-out: binding at 10 μM
δ-opioid (h) = δ-opioid (h) (Homo sapiens (Human), UniProt P41143); experiment: as above; conditions: read-out: binding at 10 μM
Neuropeptide Y Y2 (h) = Neuropeptide Y Y2 (h) (Homo sapiens (Human), UniProt P49146); experiment: as above; conditions: read-out: binding at 10 μM
5-HT6 (h) = 5-HT6 (h) (Homo sapiens (Human), UniProt P50406); experiment: as above; type: binding; conditions: agonist radioligand
Muscarinic M3 (h) = Muscarinic M3 (h) (Homo sapiens (Human), UniProt P20309); experiment: as above; type: binding; conditions: antagonist radioligand
[6] = system: P2X (ATP) (rat urinary bladder); experiment: as above; type: binding
Glucocorticoid GR (h) = Glucocorticoid GR (h) (Homo sapiens (Human), UniProt P04150); experiment: as above; conditions: read-out: binding at 10 μM
Endothelin ETA (h) = Endothelin ETA (h) (Homo sapiens (Human), UniProt P25101); experiment: as above; conditions: read-out: binding at 10 μM
5-HT5a (h) = 5-HT5a (h) (Homo sapiens (Human), UniProt P47898); experiment: as above; conditions: agonist, read-out: binding at 10 μM
[7] = system: GABA (non-selective) (rat cortex); experiment: as above; type: binding
PCP (rat cortex) = experiment: as above; type: binding
Prostaglandin EP2 (h) = Prostaglandin EP2 (h) (Homo sapiens (Human), UniProt P43116); experiment: as above; conditions: read-out: binding at 10 μM
Orphanin ORL1 (h) = Orphanin ORL1 (h) (Homo sapiens (Human), UniProt P41146); experiment: as above; conditions: read-out: binding at 10 μM
Adenosine A2A (h) = Adenosine A2A (h) (Homo sapiens (Human), UniProt P29274); experiment: as above; type: binding

Chain of 5-HT2C receptor (P28335 whole entry, looked up): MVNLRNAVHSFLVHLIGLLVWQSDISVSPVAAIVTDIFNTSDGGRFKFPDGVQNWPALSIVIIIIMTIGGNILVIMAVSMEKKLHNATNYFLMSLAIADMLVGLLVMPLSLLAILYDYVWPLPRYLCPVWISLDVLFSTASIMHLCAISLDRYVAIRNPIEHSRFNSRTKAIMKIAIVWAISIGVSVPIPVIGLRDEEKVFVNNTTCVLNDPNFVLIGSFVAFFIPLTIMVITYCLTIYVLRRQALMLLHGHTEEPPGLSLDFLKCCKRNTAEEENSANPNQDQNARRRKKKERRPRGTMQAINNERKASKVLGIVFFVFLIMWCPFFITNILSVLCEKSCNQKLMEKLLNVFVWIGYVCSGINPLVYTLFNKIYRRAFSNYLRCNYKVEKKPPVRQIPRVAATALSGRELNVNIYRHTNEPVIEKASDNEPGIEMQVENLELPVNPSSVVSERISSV
Chain of PPARγ (h) (P37231 whole entry, looked up): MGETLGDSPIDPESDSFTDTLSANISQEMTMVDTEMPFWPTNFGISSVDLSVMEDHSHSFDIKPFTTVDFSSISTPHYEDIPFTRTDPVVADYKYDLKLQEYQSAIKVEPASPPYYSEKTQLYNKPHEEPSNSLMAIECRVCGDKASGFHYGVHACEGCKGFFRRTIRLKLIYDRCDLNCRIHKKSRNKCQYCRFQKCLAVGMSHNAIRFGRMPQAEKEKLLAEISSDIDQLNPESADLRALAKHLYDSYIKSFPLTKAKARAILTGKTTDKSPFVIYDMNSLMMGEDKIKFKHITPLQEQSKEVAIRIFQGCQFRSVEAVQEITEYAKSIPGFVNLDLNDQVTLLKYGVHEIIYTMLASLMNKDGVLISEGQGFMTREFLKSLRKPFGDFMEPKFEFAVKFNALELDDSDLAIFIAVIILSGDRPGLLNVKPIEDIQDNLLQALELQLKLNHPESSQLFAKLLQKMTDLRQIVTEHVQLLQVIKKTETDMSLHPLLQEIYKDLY
Chain of Endothelin ETA (h) (P25101 whole entry, looked up): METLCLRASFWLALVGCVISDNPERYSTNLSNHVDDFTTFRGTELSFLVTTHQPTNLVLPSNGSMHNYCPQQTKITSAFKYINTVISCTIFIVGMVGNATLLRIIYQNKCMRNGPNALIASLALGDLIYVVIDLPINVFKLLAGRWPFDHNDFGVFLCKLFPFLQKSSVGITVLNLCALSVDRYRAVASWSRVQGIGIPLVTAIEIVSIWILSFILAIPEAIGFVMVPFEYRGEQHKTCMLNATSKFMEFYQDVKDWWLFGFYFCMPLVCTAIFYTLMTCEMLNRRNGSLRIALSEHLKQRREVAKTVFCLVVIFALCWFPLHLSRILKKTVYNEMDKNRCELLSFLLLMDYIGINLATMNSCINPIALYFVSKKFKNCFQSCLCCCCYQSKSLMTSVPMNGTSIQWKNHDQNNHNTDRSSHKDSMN
Chain of 5-HT5a (h) (P47898 whole entry, looked up): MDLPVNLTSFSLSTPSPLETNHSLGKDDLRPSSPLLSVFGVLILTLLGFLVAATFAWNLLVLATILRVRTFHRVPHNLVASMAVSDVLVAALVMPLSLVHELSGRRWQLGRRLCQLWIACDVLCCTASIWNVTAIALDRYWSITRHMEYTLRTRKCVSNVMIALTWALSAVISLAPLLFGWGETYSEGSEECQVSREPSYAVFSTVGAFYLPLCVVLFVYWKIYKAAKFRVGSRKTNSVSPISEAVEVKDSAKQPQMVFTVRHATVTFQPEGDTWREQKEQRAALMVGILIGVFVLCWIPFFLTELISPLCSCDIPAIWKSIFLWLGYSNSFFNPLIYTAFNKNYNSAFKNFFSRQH
Chain of Dopamine D3 (h) (P35462 whole entry, looked up): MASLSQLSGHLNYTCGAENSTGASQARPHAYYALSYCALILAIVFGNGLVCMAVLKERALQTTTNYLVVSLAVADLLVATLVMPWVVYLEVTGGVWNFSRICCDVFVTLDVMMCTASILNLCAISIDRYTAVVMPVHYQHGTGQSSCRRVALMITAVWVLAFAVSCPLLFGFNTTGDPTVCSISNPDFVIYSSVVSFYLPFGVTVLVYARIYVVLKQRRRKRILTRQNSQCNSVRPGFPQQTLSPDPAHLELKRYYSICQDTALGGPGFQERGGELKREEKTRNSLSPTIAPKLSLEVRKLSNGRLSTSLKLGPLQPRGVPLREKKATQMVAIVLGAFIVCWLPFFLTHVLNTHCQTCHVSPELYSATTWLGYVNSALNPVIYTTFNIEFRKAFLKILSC
Chain of Cholecystokinin CCK2 (CCKB) (h) (P32239 whole entry, looked up): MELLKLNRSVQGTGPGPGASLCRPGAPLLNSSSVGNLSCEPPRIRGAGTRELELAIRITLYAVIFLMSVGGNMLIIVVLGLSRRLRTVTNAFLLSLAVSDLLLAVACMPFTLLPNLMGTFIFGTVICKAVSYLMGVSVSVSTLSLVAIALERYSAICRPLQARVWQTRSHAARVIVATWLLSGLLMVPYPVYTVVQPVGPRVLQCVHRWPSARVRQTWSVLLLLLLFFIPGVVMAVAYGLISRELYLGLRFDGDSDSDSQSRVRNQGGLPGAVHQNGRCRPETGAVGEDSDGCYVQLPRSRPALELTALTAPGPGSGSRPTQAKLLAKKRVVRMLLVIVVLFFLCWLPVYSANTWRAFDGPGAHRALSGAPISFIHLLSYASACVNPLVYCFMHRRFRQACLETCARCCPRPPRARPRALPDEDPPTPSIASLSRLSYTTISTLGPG
Chain of PAC1 (Pituitary adenylate cyclase-activating polypeptide, PACAP) (h) (P41586 whole entry, looked up): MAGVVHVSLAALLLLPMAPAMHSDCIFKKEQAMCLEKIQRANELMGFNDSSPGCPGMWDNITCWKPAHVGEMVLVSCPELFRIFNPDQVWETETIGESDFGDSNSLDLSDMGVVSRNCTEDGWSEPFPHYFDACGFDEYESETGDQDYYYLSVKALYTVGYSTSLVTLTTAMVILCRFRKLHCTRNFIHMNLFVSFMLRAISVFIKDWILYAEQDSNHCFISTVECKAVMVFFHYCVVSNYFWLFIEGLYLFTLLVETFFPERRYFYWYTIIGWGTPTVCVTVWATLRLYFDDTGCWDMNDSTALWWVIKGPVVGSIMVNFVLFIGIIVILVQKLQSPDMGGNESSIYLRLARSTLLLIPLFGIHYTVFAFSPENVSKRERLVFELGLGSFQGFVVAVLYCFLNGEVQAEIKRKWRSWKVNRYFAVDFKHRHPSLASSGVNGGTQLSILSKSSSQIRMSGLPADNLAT
Chain of δ-opioid (h) (P41143 whole entry, looked up): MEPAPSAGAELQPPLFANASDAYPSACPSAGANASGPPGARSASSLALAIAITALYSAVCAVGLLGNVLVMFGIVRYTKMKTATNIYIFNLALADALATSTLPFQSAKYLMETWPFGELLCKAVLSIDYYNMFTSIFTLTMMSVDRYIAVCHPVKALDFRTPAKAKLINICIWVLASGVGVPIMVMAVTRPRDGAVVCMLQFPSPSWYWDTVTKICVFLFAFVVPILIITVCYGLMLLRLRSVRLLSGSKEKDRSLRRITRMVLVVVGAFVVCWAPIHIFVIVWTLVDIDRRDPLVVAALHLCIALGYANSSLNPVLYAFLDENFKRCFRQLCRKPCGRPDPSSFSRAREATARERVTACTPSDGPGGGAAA
Chain of Melanocortin MC4 (h) (P32245 whole entry, looked up): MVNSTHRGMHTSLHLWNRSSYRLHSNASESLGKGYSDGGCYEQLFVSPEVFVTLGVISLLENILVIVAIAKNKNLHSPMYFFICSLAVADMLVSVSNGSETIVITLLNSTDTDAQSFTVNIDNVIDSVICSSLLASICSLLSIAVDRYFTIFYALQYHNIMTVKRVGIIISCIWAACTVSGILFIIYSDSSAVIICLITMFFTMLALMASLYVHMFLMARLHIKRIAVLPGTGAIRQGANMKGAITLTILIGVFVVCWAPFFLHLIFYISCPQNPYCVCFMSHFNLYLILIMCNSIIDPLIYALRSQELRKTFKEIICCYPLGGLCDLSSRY
Chain of 5-HT6 (h) (P50406 whole entry, looked up): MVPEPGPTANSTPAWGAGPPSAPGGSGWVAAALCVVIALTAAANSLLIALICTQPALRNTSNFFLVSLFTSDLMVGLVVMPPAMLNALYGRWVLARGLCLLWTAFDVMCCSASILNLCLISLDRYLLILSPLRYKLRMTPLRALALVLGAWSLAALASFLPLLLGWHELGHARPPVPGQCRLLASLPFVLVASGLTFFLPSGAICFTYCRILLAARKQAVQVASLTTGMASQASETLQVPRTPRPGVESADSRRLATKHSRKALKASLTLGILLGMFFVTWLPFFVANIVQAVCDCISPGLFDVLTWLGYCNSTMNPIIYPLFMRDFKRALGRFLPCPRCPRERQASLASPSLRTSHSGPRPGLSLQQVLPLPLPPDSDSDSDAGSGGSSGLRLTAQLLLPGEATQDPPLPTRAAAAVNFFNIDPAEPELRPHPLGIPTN
Chain of Adrenergic β1 (h) (P08588 whole entry, looked up): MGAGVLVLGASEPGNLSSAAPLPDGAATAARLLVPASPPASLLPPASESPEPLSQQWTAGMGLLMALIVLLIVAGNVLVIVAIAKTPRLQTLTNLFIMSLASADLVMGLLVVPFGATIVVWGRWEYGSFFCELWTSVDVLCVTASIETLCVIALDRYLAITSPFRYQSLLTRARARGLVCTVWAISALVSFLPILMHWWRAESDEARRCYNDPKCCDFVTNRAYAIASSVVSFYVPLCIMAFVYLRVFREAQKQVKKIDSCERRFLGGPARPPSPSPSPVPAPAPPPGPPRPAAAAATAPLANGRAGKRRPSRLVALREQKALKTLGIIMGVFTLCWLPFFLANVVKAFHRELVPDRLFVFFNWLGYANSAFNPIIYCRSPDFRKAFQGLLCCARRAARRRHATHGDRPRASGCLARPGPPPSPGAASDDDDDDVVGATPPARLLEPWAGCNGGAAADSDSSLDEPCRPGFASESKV
Chain of BZD (peripheral) (rat heart) (P16257 whole entry, looked up): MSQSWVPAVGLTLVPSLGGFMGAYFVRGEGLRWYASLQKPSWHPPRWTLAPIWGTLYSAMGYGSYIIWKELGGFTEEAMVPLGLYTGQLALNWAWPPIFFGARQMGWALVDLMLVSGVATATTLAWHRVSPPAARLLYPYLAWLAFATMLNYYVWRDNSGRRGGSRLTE

In the case of `COc1cc(SC(F)(F)F)c(OC)cc1CCN` [Compound I-1, 2-(2,5-dimethoxy-4-((trifluoromethyl)thio)phenyl)ethan-1-amine], the inhibition at 10 µM (κ-opioid (h)) is reported as < 50%, the inhibition at 10 µM [1] is reported as < 50% and the inhibition at 10 µM (PPARγ (h)) is reported as < 50%. For the same molecule, the inhibition at 10 µM (Adrenergic β1 (h)) was < 50%, the inhibition at 10 µM (D2S (h)) was < 50% and the inhibition at 10 µM (5-HT1A (h)) was > 80%. For the same molecule, the “5-HT2AR agonist activity (in words)” value (5-HT2A receptor) was “pronounced agonists”, the EC50 (5-HT2A receptor) was 4.1 nM and the “activation selectivity for 5-HT2A over 5-HT2B” value (5-HT2A receptor; EC50, IP1) was ~21 fold. The “2A/2B EC50 Selectivity” value (5-HT2A receptor; IP1 assay) was 21.5, the Emax (5-HT2A receptor; IP1 assay, relative to 5-HT) was ~86% and the inhibition at 10 µM (5-HT transporter (h)) was < 50%. The “binding at 10 μM” value (TNF-α (h)) was “NB (inhibited less than 50% of radioligand bound to them, and therefore it can be concluded they do not bind (“no binding,” NB))”, the inhibition at 10 µM [2] was < 50% and the “binding at 10 μM” value [3] was “NB (inhibited less than 50% of radioligand bound to them, and therefore it can be concluded they do not bind (“no binding,” NB))”. For the same molecule, the inhibition at 10 µM (Dopamine D3 (h)) was 70.4%, the inhibition at 10 µM (Muscarinic M2 (h)) was < 50% and the inhibition at 10 µM (Endothelin ETB (h)) was < 50%. The “binding at 10 μM” value [4] was “NB (inhibited less than 50% of radioligand bound to them, and therefore it can be concluded they do not bind (“no binding,” NB))”, the inhibition at 10 µM (Angiotensin AT1 (h)) was < 50% and the inhibition at 10 µM (5-HT2C receptor) was > 80%. The “binding selectivity for 5-HT2C over 5-HT2B” value (5-HT2C receptor; Ki, [125I]DOI) was ~12 fold, the Ki (5-HT2C receptor; radioligand [125I](±)DOI, read-out: 5-HT2C, Ki) was 0.55 nM and the inhibition at 10 µM (μ-opioid (h)) was < 50%. For the same molecule, the inhibition at 10 µM (Tachykinin NK3 (h)) was < 50%, the inhibition at 10 µM (Galanin GAL2 (h)) was < 50% and the inhibition at 10 µM (Melanocortin MC4 (h)) was < 50%. For the same molecule, the inhibition at 10 µM [5] was < 50%, the inhibition at 10 µM (δ-opioid (h)) was < 50% and the inhibition at 10 µM (Neuropeptide Y Y2 (h)) was < 50%. The inhibition at 10 µM (5-HT6 (h)) was > 80%, the inhibition at 10 µM (Muscarinic M3 (h)) was 79% and the “binding at 10 μM” value [6] was “NB (inhibited less than 50% of radioligand bound to them, and therefore it can be concluded they do not bind (“no binding,” NB))”. The inhibition at 10 µM (Glucocorticoid GR (h)) was < 50%, the inhibition at 10 µM (Endothelin ETA (h)) was < 50% and the inhibition at 10 µM (5-HT5a (h)) was < 50%. For the same molecule, the “binding at 10 μM” value [7] was “NB (inhibited less than 50% of radioligand bound to them, and therefore it can be concluded they do not bind (“no binding,” NB))”, the “binding at 10 μM” value (PCP (rat cortex)) was “NB (inhibited less than 50% of radioligand bound to them, and therefore it can be concluded they do not bind (“no binding,” NB))” and the inhibition at 10 µM (Prostaglandin EP2 (h)) was < 50%. For the same molecule, the inhibition at 10 µM (Orphanin ORL1 (h)) was < 50% and the “binding at 10 μM” value (Adenosine A2A (h)) was “NB (inhibited less than 50% of radioligand bound to them, and therefore it can be concluded they do not bind (“no binding,” NB))”.
